The values below are quoted from earlier work in patent publication US4971799A, “Percutaneous-administration-type pharmaceutical preparation of nitroglycerin” (Sekisui Kagaku Kogyo Kabushiki Kaisha, priority 1987, dated 1990).

For the series the following is noted: intravenous injection.

Turning to `O=[N+]([O-])OCC(CO[N+](=O)[O-])O[N+](=O)[O-]` [nitroglycerin], the Duration of effects result was “effects are lost after a very short period of time”. Moreover, the Side effects result (high blood level for a short period) is given as “headache, dizziness, orthostatic hypotension”.
